{"source": "patent US20230107642A1", "about": "(Erasca, Inc., priority 2020, published 2023)", "data": [{"assay": "Determination of total drug concentration in rat brain (BBB penetration)", "type": "in vivo", "details": "male SD rat, 2 mg/kg IV infusion for 4 hours, brain collected at end of 4 hours", "values": [{"smiles": "C=CC(=O)N1[C@H](C)CN(c2nc(=O)n3c4c(c(-c5cc(Cl)c(F)cc5F)c(C(F)(F)F)cc24)SC[C@@H](Nc2ncccn2)C3)C[C@@H]1C", "note": "[Example 13-90]", "BBB activity": "− (Compounds that did not meet this threshold are indicated as “−”)"}, {"smiles": "C=CC(=O)N1[C@H](C)CN(c2nc(=O)n3c4c(c(-c5cc(Cl)c(F)cc5F)c(C(F)(F)F)cc24)SC[C@@H](Nc2ncccn2)C3)C[C@@H]1C", "note": "(atropisomer, axis not shown) [Example 13-73]", "BBB activity": "− (Compounds that did not meet this threshold are indicated as “−”)"}, {"smiles": "C=CC(=O)N1[C@H](C)CN(c2nc(=O)n3c4c(c(-c5ccc(F)cc5)c(C(F)(F)F)cc24)SC[C@@H](OC)C3)C[C@@H]1C", "note": "[Example 13-40]", "BBB activity": "+ (Compounds that were measured as having a total concentration in the brain of at least 60 ng/g are indicated as “+”)"}, {"smiles": "C=CC(=O)N1C[C@H](C)N(c2nc(=O)n3c4c(c(-c5cc(Cl)c(F)cc5F)c(C(F)(F)F)cc24)SCC2(COC2)C3)C[C@H]1C", "note": "[Example 13-31]", "BBB activity": "+ (Compounds that were measured as having a total concentration in the brain of at least 60 ng/g are indicated as “+”)"}, {"smiles": "C=CC(=O)N1C[C@H](C)N(c2nc(=O)n3c4c(c(-c5cc(Cl)c(F)cc5F)c(C(F)(F)F)cc24)CC[C@@H]3CN2CCC3(CC2)COC3)C[C@H]1C", "note": "[Example 13-74]", "BBB activity": "− (Compounds that did not meet this threshold are indicated as “−”)"}, {"smiles": "C=CC(=O)N1CCN(c2nc(=O)n(-c3c(C)ccnc3C(C)C)c3nc(-c4c(O)cccc4F)c(F)cc23)[C@@H](C)C1", "note": "[Example 13-92]", "BBB activity": "− (Compounds that did not meet this threshold are indicated as “−”)"}, {"smiles": "C=CC(=O)N1C[C@H](C)N(c2nc(=O)n3c4c(c(-c5ccc(F)cc5F)c(C(F)(F)F)cc24)OC[C@@H]3COCCOC)C[C@H]1C", "note": "[Example 13-91]", "BBB activity": "− (Compounds that did not meet this threshold are indicated as “−”)"}, {"smiles": "C=CC(=O)N1CCN(c2nc(=O)n3c4c(c(-c5ccc(F)cc5F)c(Cl)cc24)SCCC3)[C@@H](C)C1", "note": "[Example 13-61]", "BBB activity": "− (Compounds that did not meet this threshold are indicated as “−”)"}, {"smiles": "C=CC(=O)N1CCN(c2nc(=O)n3c4c(c(-c5ccc(F)cc5F)c(C(F)(F)F)cc24)SC[C@@H]3COC)CC1", "note": "[Example 13-14]", "BBB activity": "+ (Compounds that were measured as having a total concentration in the brain of at least 60 ng/g are indicated as “+”)"}, {"smiles": "C=CC(=O)N1CCN(c2nc(=O)n3c4c(c(-c5cc(Cl)c(F)cc5F)c(Cl)cc24)OC[C@@H]3CN2CCN(CC(F)F)CC2)[C@@H](C)C1", "note": "[Example 13-81]", "BBB activity": "− (Compounds that did not meet this threshold are indicated as “−”)"}, {"smiles": "C=CC(=O)N1CCN(c2nc(=O)n3c4c(c(-c5ccc(F)c(Cl)c5)c(C(F)(F)F)cc24)SC[C@@H](OC)C3)CC1", "note": "[Example 13-25]", "BBB activity": "+ (Compounds that were measured as having a total concentration in the brain of at least 60 ng/g are indicated as “+”)"}]}]}
